This test relates to hESCs. The test is described as follows: Real time PCR of hESCs after addition of BMP4 in CDM (extra-embryonic differentiation). Format: cell-based, human. To be noted: 10 ng/ml in CDM. How it is done:
hESCs grown in Feeder free and serum free conditions were harvested using 5 mg/ml collagenase IV then plated into plates pre-coated with fibronectin. hESCs were grown for 48 hours in CDM supplemented with Activin (10 ng/ml, RandD systems) and FGF2 (12 ng/ml, RandD systems). To induce extra-embryonic differentiation, hESCs were grown for 5 additional days in CDM supplemented with BMP4 (10 ng/ml, RandD systems). To obtain neuroectoderm progenitors, hESCs were grown in CDM or in CDM-PVA in the presence of SB431542 (10 μM Tocris) and FGF2 (12 ng/ml, RandD systems) for 7 additional days. The resulting cells were grown in non-adherent conditions for 10 days and then plated back for 5 additional days in CDM to obtain fully differentiated neuronal cells. To obtain mesendoderm precursors, hESCs were grown for 3 additional days in CDM-PVA in the presence of SU5402 (10 μM, Calbiochem) and Activin (5 ng/ml, RandD systems). On the fifth day after passaging, the resulting cells were grown in CDM-PVA in the presence of BMP4 (10 ng/ml, RandD systems), FGF2 (20 ng/ml, RandD systems) and Activin (30 ng/ml or 100 ng/ml, RandD systems).
Total RNAs were extracted from hESCs or differentiated progenitors using the RNeasy Mini or Micro Kits (Qiagen). Each sample was treated with RNAse-Free DNAse (Qiagen) in order to avoid DNA contamination. […]
On the technique in general: Quantitative PCR measures a nucleic acid by following its amplification.

With “BMP4: Bone Morphogenetic Protein 4 growth factor”, the “expression of extra-embryonic markers including GATA6 and H19” value is “strongly enhanced”. Moreover, under “after 16 hours”, the “level of Oct-4 transcripts” value was “significant decrease”.

(Values after patent publication US8323971B2, “Differentiation of pluripotent cells into primary germ layer progenitors” (Cambridge Enterprise Limited, priority 2006, dated 2012).)
